# From ChEMBL document CHEMBL4308841, “Synthesis, in vitro antiproliferative activity, and kinase inhibitory effects of pyrazole-containing diarylureas and diarylamides” (Eur J Med Chem, 2018)
# Columns and labels:
# MDA-MB-435 = assay: Growth inhibition of human MDA-MB-435 cells incubated for 48 hrs by sulforhodamine B assay; format: functional, cell-based; conditions: MDA-MB-435, 48 h
# LOX IMVI [1] = assay: Growth inhibition of human LOXIMVI cells assessed as cell growth at 1 uM incubated for 48 hrs by sulforhodamine B assay relative to control; format: functional; conditions: read-out: Activity
# T47D = assay: Growth inhibition of human T47D cells assessed as cell growth at 0.1 uM incubated for 48 hrs by sulforhodamine B assay relative to control; format: functional; conditions: read-out: Activity
# UO-31 = assay: Growth inhibition of human UO31 cells assessed as cell growth at 0.01 uM incubated for 48 hrs by sulforhodamine B assay relative to control; format: functional; conditions: UO-31, 48 h, read-out: Activity
# SF-539 [2] = assay: Growth inhibition of human SF539 cells incubated for 48 hrs by sulforhodamine B assay; format: functional, cell-based; conditions: SF-539, 48 h
# SF-539 [3] = assay: Growth inhibition of human SF539 cells assessed as cell growth at 0.1 uM incubated for 48 hrs by sulforhodamine B assay relative to control; format: functional; conditions: SF-539, 48 h, read-out: Activity
# A498 = assay: Growth inhibition of human A498 cells assessed as cell growth at 0.01 uM incubated for 48 hrs by sulforhodamine B assay relative to control; format: functional; conditions: A498, 48 h, read-out: Activity
# RPMI-8226 [4] = assay: Growth inhibition of human RPMI8226 cells incubated for 48 hrs by sulforhodamine B assay; format: functional, cell-based; conditions: RPMI-8226, 48 h
# SNB-19 = assay: Growth inhibition of human SNB19 cells assessed as cell growth at 100 uM incubated for 48 hrs by sulforhodamine B assay relative to control; format: functional; conditions: SNB-19, 48 h, read-out: Activity
# SW-620 = assay: Growth inhibition of human SW620 cells assessed as cell growth at 1 uM incubated for 48 hrs by sulforhodamine B assay relative to control; format: functional; conditions: SW-620, 48 h, read-out: Activity
# A549 = assay: Growth inhibition of human A549/ATCC cells incubated for 48 hrs by sulforhodamine B assay; format: functional, cell-based; conditions: A549, 48 h
# MDA-MB-231 = assay: Growth inhibition of human MDA-MB-231 cells incubated for 48 hrs by sulforhodamine B assay; format: functional, cell-based; conditions: MDA-MB-231, 48 h
# UACC-62 = assay: Growth inhibition of human UACC62 cells assessed as cell growth at 0.1 uM incubated for 48 hrs by sulforhodamine B assay relative to control; format: functional; conditions: UACC-62, 48 h, read-out: Activity
# RPMI-8226 [5] = assay: Growth inhibition of human RPMI8226 cells assessed as cell growth at 0.01 uM incubated for 48 hrs by sulforhodamine B assay relative to control; format: functional; conditions: RPMI-8226, 48 h, read-out: Activity
# MDA-MB-468 = assay: Growth inhibition of human MDA-MB-468 cells incubated for 48 hrs by sulforhodamine B assay; format: functional, cell-based; conditions: MDA-MB-468, 48 h
# ACHN = assay: Growth inhibition of human ACHN cells assessed as cell growth at 100 uM incubated for 48 hrs by sulforhodamine B assay relative to control; format: functional; conditions: read-out: Activity
# HCT-116 = assay: Growth inhibition of human HCT116 cells assessed as cell growth at 100 uM incubated for 48 hrs by sulforhodamine B assay relative to control; format: functional; conditions: HCT-116, 48 h, read-out: Activity
# SF-295 = assay: Growth inhibition of human SF295 cells incubated for 48 hrs by sulforhodamine B assay; format: functional, cell-based; conditions: SF-295, 48 h
# K562 [6] = assay: Growth inhibition of human K562 cells assessed as cell growth at 1 uM incubated for 48 hrs by sulforhodamine B assay relative to control; format: functional; conditions: K562, 48 h, read-out: Activity
# SF-268 [7] = assay: Growth inhibition of human SF268 cells assessed as cell growth at 1 uM incubated for 48 hrs by sulforhodamine B assay relative to control; format: functional; conditions: SF-268, 48 h, read-out: Activity
# RPMI-8226 [8] = assay: Growth inhibition of human RPMI8226 cells assessed as cell growth at 0.1 uM incubated for 48 hrs by sulforhodamine B assay relative to control; format: functional; conditions: RPMI-8226, 48 h, read-out: Activity
# SF-268 [9] = assay: Growth inhibition of human SF268 cells assessed as cell growth at 100 uM incubated for 48 hrs by sulforhodamine B assay relative to control; format: functional; conditions: SF-268, 48 h, read-out: Activity
# OVCAR-5 = assay: Growth inhibition of human OVCAR5 cells assessed as cell growth at 0.01 uM incubated for 48 hrs by sulforhodamine B assay relative to control; format: functional; conditions: OVCAR-5, 48 h, read-out: Activity
# Hs-578T = assay: Growth inhibition of human Hs578T cells assessed as cell growth at 100 uM incubated for 48 hrs by sulforhodamine B assay relative to control; format: functional; conditions: read-out: Activity
# K562 [10] = assay: Growth inhibition of human K562 cells assessed as cell growth at 0.01 uM incubated for 48 hrs by sulforhodamine B assay relative to control; format: functional; conditions: K562, 48 h, read-out: Activity
# LOX IMVI [11] = assay: Growth inhibition of human LOXIMVI cells assessed as cell growth at 0.1 uM incubated for 48 hrs by sulforhodamine B assay relative to control; format: functional; conditions: read-out: Activity
# SK-MEL-28 = assay: Growth inhibition of human SK-MEL-28 cells incubated for 48 hrs by sulforhodamine B assay; format: functional, cell-based; conditions: SK-MEL-28, 48 h
# BT-549 = assay: Growth inhibition of human BT549 cells assessed as cell growth at 0.1 uM incubated for 48 hrs by sulforhodamine B assay relative to control; format: functional; conditions: BT-549, 48 h, read-out: Activity
# [12] = read-out: LC50 (the source's name)
# [13] = read-out: pLC50 (the source's name) (converted)
compound,measurement,setting,value
O=C(Nc1cccc(-n2cc(-c3ccncc3)c(-c3cc(O)cc(Cl)c3)n2)c1)Nc1ccc(Cl)c(Cl)c1,GI50,MDA-MB-435; read-out: GI50,1.5 µM
same,TGI,MDA-MB-435; read-out: TGI,35.8 µM
same,GI50,MDA-MB-435; read-out: pGI50 (converted),1.58 µM
same,TGI,MDA-MB-435; read-out: pTGI (converted),3.55 µM
same,growth at 1 µM,LOX IMVI [1],83%
same,growth at 0.1 µM,T47D,88%
same,growth at 0.01 µM,UO-31,93%
same,GI50,SF-539 [2]; read-out: GI50,1.44 µM
same,CC50,SF-539 [2]; [12],7.4 µM
same,TGI,SF-539 [2]; read-out: TGI,32.7 µM
same,GI50,SF-539 [2]; read-out: pGI50 (converted),1.45 µM
same,CC50,SF-539 [2]; [13],7.41 µM
same,TGI,SF-539 [2]; read-out: pTGI (converted),3.24 µM
same,growth at 0.1 µM,SF-539 [3],95%
same,growth at 0.01 µM,A498,57%
same,IC50,RPMI-8226 [4],1.44 µM
same,GI50,RPMI-8226 [4]; read-out: GI50,1.44 µM
same,CC50,RPMI-8226 [4]; [12],> 100 µM
same,TGI,RPMI-8226 [4]; read-out: TGI,43 µM
same,GI50,RPMI-8226 [4]; read-out: pGI50 (converted),1.45 µM
same,CC50,RPMI-8226 [4]; [13],> 100 µM
same,TGI,RPMI-8226 [4]; read-out: pTGI (converted),4.27 µM
same,growth at 100 µM,SNB-19,-26%
same,growth at 1 µM,SW-620,102%
same,IC50,A549,1.96 µM
same,GI50,A549; read-out: GI50,1.96 µM
same,CC50,A549; [12],> 100 µM
same,TGI,A549; read-out: TGI,75.4 µM
same,GI50,A549; read-out: pGI50 (converted),1.95 µM
same,CC50,A549; [13],> 100 µM
same,TGI,A549; read-out: pTGI (converted),7.59 µM
same,GI50,MDA-MB-231; read-out: GI50,1.01 µM
same,CC50,MDA-MB-231; [12],> 100 µM
same,TGI,MDA-MB-231; read-out: TGI,77 µM
same,GI50,MDA-MB-231; read-out: pGI50 (converted),1 µM
same,CC50,MDA-MB-231; [13],> 100 µM
same,TGI,MDA-MB-231; read-out: pTGI (converted),7.76 µM
same,growth at 0.1 µM,UACC-62,99%
same,growth at 0.01 µM,RPMI-8226 [5],104%
same,IC50,MDA-MB-468,1.71 µM
same,GI50,MDA-MB-468; read-out: GI50,1.7 µM
same,CC50,MDA-MB-468; [12],> 100 µM
same,TGI,MDA-MB-468; read-out: TGI,70.9 µM
same,GI50,MDA-MB-468; read-out: pGI50 (converted),1.7 µM
same,CC50,MDA-MB-468; [13],> 100 µM
same,TGI,MDA-MB-468; read-out: pTGI (converted),7.08 µM
same,growth at 100 µM,ACHN,-33%
same,growth at 100 µM,HCT-116,-61%
same,GI50,SF-295; read-out: GI50,1.7 µM
same,CC50,SF-295; [12],4.4 µM
same,TGI,SF-295; read-out: TGI,45 µM
same,GI50,SF-295; read-out: pGI50 (converted),1.7 µM
same,CC50,SF-295; [13],43.7 µM
same,TGI,SF-295; read-out: pTGI (converted),4.57 µM
same,growth at 1 µM,K562 [6],83%
same,growth at 1 µM,SF-268 [7],89%
same,growth at 0.1 µM,RPMI-8226 [8],103%
same,growth at 100 µM,SF-268 [9],-11%
same,growth at 0.01 µM,OVCAR-5,53%
same,growth at 100 µM,Hs-578T,9%
same,growth at 0.01 µM,K562 [10],107%
same,growth at 0.1 µM,LOX IMVI [11],105%
same,GI50,SK-MEL-28; read-out: GI50,2.14 µM
same,CC50,SK-MEL-28; [12],4.2 µM
same,TGI,SK-MEL-28; read-out: TGI,55.5 µM
same,GI50,SK-MEL-28; read-out: pGI50 (converted),2.14 µM
same,CC50,SK-MEL-28; [13],41.7 µM
same,TGI,SK-MEL-28; read-out: pTGI (converted),5.5 µM
same,growth at 0.1 µM,BT-549,93%
